Measured values taken from patent publication US11337964B2, “Isoindoline derivative, pharmaceutical composition and use thereof” (Kangpu Biopharmaceuticals, Ltd., priority 2017, dated 2022).

Legend:
Assay type in all cases: biochemical
Conditions in all cases: FAM-cAMP substrate, 30 minutes at room temperature
PDE4B1 = molecular target: T1, PDE4B1 (Homo sapiens, UniProt Q07343); experiment: PDE4 activity inhibition assay, PDE4B1
T1 construct: purchased BPS 60041
Description: (§1) The IC50 value of the inhibitory effect of the compound on PDE4A1A, PDE4B1 and PDE4D3 was tested.
(§2) Positive compound: Trequinsin (Sigma, Cat. No. T2057).
(§3) Equipment: Wallac Victor Multi-label counter (Perkin Elmer).
(§4) I. Preparing 1× reaction liquid and termination liquid;
(§5) II. PDE enzymatic reaction; • 1) The PDE was dissolved in 1× reaction solution to form 2× enzyme solution. • 2) FAM-cAMP was dissolved in 1× reaction solution to form 2× substrate solution. • 3) Echo 550 was used to transfer the corresponding volume of the compound in DMSO solution to the reaction plate. • 4) 2× enzyme solution was added into the corresponding well of the reaction plate and incubated with the compound solution at room temperature for 15 minutes. • 5) 2× substrate solution was added into the corresponding well of the reaction plate to initiate the reaction. • 6) Reaction plate was incubated at room temperature for 30 minutes and terminated by adding termination liquid, then incubated at room temperature for 60 minutes.
(§6) The inhibition rate was calculated by Excel; IC50 was calculated by GraphPad Prism.

PDE4A1A = molecular target: T2, PDE4A1A (Homo sapiens, UniProt P27815); experiment: PDE4 activity inhibition assay, PDE4A1A
T2 construct: purchased BPS 60040
Description: as §1, §2, §3, §4, §5, §6

PDE4D3 = molecular target: T3, PDE4D3 (Homo sapiens, UniProt Q08499); experiment: PDE4 activity inhibition assay, PDE4D3
T3 construct: purchased BPS 60046
Description: as §1, §2, §3, §4, §5, §6

T2 sequence (P27815 1-647 isoform P27815-4): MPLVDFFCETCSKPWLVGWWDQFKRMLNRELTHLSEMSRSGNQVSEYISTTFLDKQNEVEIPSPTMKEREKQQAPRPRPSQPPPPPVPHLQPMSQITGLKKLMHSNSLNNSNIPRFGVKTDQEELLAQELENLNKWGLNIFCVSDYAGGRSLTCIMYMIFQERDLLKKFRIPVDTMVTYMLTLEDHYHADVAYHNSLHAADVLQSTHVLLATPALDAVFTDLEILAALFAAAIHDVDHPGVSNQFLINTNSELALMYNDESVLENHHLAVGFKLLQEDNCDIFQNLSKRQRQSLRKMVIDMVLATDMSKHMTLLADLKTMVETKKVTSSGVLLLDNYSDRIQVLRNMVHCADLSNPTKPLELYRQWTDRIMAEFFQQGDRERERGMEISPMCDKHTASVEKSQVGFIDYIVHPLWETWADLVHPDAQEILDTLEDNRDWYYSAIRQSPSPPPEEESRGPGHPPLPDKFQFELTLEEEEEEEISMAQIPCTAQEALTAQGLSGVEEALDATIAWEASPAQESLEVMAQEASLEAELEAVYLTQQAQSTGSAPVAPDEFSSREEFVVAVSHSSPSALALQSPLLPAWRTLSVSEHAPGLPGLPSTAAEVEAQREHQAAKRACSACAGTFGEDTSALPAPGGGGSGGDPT
T3 sequence (Q08499 1-673 isoform Q08499-2): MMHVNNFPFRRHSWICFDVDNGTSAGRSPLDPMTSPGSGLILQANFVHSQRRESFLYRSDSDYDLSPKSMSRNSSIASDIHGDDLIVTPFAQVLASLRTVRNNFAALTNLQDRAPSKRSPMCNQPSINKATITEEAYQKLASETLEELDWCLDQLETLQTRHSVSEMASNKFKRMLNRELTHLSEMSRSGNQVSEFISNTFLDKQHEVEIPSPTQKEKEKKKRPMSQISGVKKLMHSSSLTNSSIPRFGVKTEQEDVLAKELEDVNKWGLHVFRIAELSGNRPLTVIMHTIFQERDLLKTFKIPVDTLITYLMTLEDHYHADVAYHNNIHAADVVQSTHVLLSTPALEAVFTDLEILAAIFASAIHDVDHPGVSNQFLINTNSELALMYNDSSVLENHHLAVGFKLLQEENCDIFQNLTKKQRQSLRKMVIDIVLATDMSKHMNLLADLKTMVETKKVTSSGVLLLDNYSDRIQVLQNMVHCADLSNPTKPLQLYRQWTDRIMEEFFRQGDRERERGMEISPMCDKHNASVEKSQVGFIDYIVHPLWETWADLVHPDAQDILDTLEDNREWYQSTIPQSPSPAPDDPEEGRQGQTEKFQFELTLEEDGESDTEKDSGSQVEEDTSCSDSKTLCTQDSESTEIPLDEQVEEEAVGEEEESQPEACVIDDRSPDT
T1 sequence (Q07343 whole entry): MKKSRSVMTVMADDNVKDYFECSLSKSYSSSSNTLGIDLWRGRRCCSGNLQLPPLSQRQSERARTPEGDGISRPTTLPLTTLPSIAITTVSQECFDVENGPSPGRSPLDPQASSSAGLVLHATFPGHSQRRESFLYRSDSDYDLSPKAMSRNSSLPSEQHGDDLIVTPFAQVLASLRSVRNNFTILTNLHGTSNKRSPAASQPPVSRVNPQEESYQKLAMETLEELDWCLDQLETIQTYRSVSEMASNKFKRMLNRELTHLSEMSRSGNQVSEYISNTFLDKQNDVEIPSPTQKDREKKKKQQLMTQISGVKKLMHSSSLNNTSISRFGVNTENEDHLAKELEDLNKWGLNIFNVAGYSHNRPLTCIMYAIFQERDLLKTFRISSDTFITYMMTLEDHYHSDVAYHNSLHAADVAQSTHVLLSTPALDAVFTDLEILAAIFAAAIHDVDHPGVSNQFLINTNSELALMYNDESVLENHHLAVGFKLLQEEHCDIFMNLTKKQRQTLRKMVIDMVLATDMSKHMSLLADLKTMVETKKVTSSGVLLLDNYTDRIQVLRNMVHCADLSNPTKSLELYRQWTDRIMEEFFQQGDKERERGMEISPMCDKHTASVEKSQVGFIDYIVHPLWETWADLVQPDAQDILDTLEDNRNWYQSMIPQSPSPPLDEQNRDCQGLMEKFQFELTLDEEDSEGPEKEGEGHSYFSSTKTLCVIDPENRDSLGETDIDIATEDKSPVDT

Compound | IC50 (PDE4B1) [nM] | IC50 (PDE4A1A) [nM] | IC50 (PDE4D3) [nM]
CCOc1nc(C(CS(C)(=O)=O)N2C(=O)c3c(F)ccc(NC(=O)CC(C)C)c3C2=O)ccc1OC (stereo not drawn) [Compound 757, N-(2-(1-(6-ethoxy-5-methoxypyridin-2-yl)-2-(methylsulfonyl)ethyl)-7-fluoro-1,3-dioxoisoindolin-4-yl)-3-methylbutanamide] | 4.5 | 2.5 | 1.8
CCOc1cc([C@@H](CS(C)(=O)=O)N2C(=O)c3c(Cl)ccc(NC(C)=O)c3C2=O)ccc1OC [Compound 111, (S)—N-(7-chloro-2-(1-(3-ethoxy-4-methoxyphenyl)-2-(methylsulfonyl)ethyl)-1,3-dioxoisoindolin-4-yl)acetamide] | 4.3 | 1.3 | 1.9
[2H]C([2H])([2H])Oc1ccc([C@H](CS(C)(=O)=O)N2C(=O)c3c(F)ccc(NC(C)=O)c3C2=O)nc1OCC [Compound 719, (R)—N-(2-(1-(6-ethoxy-5-d3-methoxypyridin-2-yl)-2-(methylsulfonyl)ethyl)-7-fluoro-1,3-dioxoisoindolin-4-yl)acetamide] | 57.8 | 15.3 | 15.4
CCOc1cc(C(CS(C)(=O)=O)N2C(=O)c3nccc(NC(C)=O)c3C2=O)ccc1OC (stereo not drawn) [Compound 601, N-(6-(1-(3-ethoxy-4-methoxyphenyl)-2-(methylsulfonyl)ethyl)-5,7-dioxo-6,7-dihydro-5H-pyrrolo[3,4-b]pyridin-4-yl)acetamide] | 390 | 273 | 201
[2H]C([2H])([2H])Oc1ccc([C@H](CS(C)(=O)=O)N2C(=O)c3cc(F)cc(NC(C)=O)c3C2=O)cc1OCC [Compound 204, (R)—N-(2-(1-(3-ethoxy-4-d3-methoxyphenyl)-2-(methylsulfonyl)ethyl)-6-fluoro-1,3-dioxoisoindolin-4-yl)acetamide] | 157 | 133 | 83
CCOc1cc([C@@H](CS(C)(=O)=O)N2C(=O)c3cncc(NC(C)=O)c3C2=O)ccc1OC [Compound 502, (S)—N-(2-(1-(3-ethoxy-4-methoxyphenyl)-2-(methylsulfonyl)ethyl)-1,3-dioxo-2,3-dihydro-1H-pyrrolo[3,4-c]pyridin-7-yl)acetamide] | 513 | 206 | 107
CCOc1cc(C(CS(C)(=O)=O)N2C(=O)c3c(F)ccc(NC(C)=O)c3C2=O)ccc1OC (stereo not drawn) [Compound 101, N-(2-(1-(3-ethoxy-4-methoxyphenyl)-2-(methylsulfonyl)ethyl)-7-fluoro-1,3-dioxoisoindolin-4-yl)acetamide] | 27 | 17 | 12
[2H]C([2H])([2H])Oc1ccc([C@H](CS(C)(=O)=O)N2C(=O)c3c(F)ccc(NC(C)=O)c3C2=O)cc1OC([2H])([2H])[2H] [Compound 106, (R)—N-(2-(1-(3,4-d6-dimethoxyphenyl)-2-(methylsulfonyl)ethyl)-7-fluoro-1,3-dioxoisoindolin-4-yl)acetamide] | 493 | 340 | 300
[2H]C([2H])([2H])Oc1ccc([C@H](CS(C)(=O)=O)N2C(=O)c3cc(F)cc(NC(C)=O)c3C2=O)cc1OC([2H])([2H])[2H] [Compound 206, (R)—N-(2-(1-(3,4-d6-dimethoxyphenyl)-2-(methylsulfonyl)ethyl)-6-fluoro-1,3-dioxoisoindolin-4-yl)acetamide] | 1350 | 1460 | 997
[2H]C([2H])([2H])Oc1ccc([C@@H](CS(C)(=O)=O)N2C(=O)c3c(F)ccc(NC(=O)C4CC4)c3C2=O)cc1OCC [Compound 118, (S)—N-(2-(1-(3-ethoxy-4-d3-methoxyphenyl)-2-(methylsulfonyl)ethyl)-7-fluoro-1,3-dioxoisoindolin-4-yl)cyclopropanecarboxamide] | 8.7 | 5.1 | 2.5
[2H]C([2H])([2H])Oc1ccc([C@@H](CS(C)(=O)=O)N2C(=O)c3cccc(NC(=O)C4CC4)c3C2=O)nc1OCC [Compound 773, (S)—N-(2-(1-(6-ethoxy-5-d3-methoxypyridin-2-yl)-2-(methylsulfonyl)ethyl)-1,3-dioxoisoindolin-4-yl)cyclopropanecarboxamide] | 1.7 | 1.7 | 1.2
CCOc1nc(C(CS(C)(=O)=O)N2C(=O)c3c(F)ccc(NC(=O)COC)c3C2=O)ccc1OC (stereo not drawn) [Compound 745, N-(2-(1-(6-ethoxy-5-methoxypyridin-2-yl)-2-(methylsulfonyl)ethyl)-7-fluoro-1,3-dioxoisoindolin-4-yl)-2-methoxyacetamide] | 2.6 | 1.1 | 1.2
CCOc1nc([C@@H](CS(C)(=O)=O)N2C(=O)c3cc(C#N)cc(NC(C)=O)c3C2=O)ccc1OC [Compound 734, (S)—N-(6-cyano-2-(1-(6-ethoxy-5-methoxypyridin-2-yl)-2-(methylsulfonyl)ethyl)-1,3-dioxoisoindolin-4-yl)acetamide] | 17.8 | 5.6 | 13
[2H]C([2H])([2H])Oc1ccc([C@@H](CS(C)(=O)=O)N2C(=O)c3cccc(NC(=O)C4CC4)c3C2=O)cc1OCC [Compound 120, (S)—N-(2-(1-(3-ethoxy-4-d3-methoxyphenyl)-2-(methylsulfonyl)ethyl)-1,3-dioxoisoindolin-4-yl)cyclopropanecarboxamide] | 11 | 7.6 | 4.9
CCOc1nc([C@H](CS(C)(=O)=O)N2C(=O)c3c(F)ccc(NC(C)=O)c3C2=O)ccc1OC [Compound 706, (R)—N-(2-(1-(6-ethoxy-5-methoxypyridin-2-yl)-2-(methylsulfonyl)ethyl)-7-fluoro-1,3-dioxoisoindolin-4-yl)acetamide] | 18 | 6.5 | 4
CCOc1cc(C(CS(C)(=O)=O)N2C(=O)c3cccc(NC(C)=O)c3C2=O)ncc1OC (stereo not drawn) [Compound 901, N-(2-(1-(4-ethoxy-5-methoxypyridin-2-yl)-2-(methylsulfonyl)ethyl)-1,3-dioxoisoindolin-4-yl)acetamide] | 484 | 411 | 248
[2H]C([2H])([2H])Oc1ccc([C@@H](CS(C)(=O)=O)N2C(=O)c3c(F)ccc(NC(C)=O)c3C2=O)cc1OC([2H])([2H])[2H] [Compound 105, (S)—N-(2-(1-(3,4-d6-dimethoxyphenyl)-2-(methylsulfonyl)ethyl)-7-fluoro-1,3-dioxoisoindolin-4-yl)acetamide] | 97 | 61 | 41
CCOc1cc([C@@H](CS(C)(=O)=O)N2C(=O)c3ccc(F)c(NC(C)=O)c3C2=O)ccc1OC [Compound 302, (S)—N-(2-(1-(3-ethoxy-4-methoxyphenyl)-2-(methylsulfonyl)ethyl)-5-fluoro-1,3-dioxoisoindolin-4-yl)acetamide] | 41 | 33 | 22
CCOc1cc(C(CS(C)(=O)=O)N2C(=O)c3c(F)ccc(NC(C)=O)c3C2=O)ccc1OC(F)F (stereo not drawn) [Compound 121, N-(2-(1-(4-(difluoromethoxy)-3-ethoxyphenyl)-2-(methylsulfonyl)ethyl)-7-fluoro-1,3-dioxoisoindolin-4-yl)acetamide] | 7 | 3.4 | 0.9
CCOc1nc(C(CS(C)(=O)=O)N2C(=O)c3cccc(NC(=O)COC)c3C2=O)ccc1OC (stereo not drawn) [Compound 748, N-(2-(1-(6-ethoxy-5-methoxypyridin-2-yl)-2-(methylsulfonyl)ethyl)-1,3-dioxoisoindolin-4-yl)-2-methoxyacetamide] | 7.9 | 2.8 | 3.3
[2H]C([2H])([2H])Oc1ccc([C@@H](CS(C)(=O)=O)N2C(=O)c3c(F)ccc(NC(=O)C4CC4)c3C2=O)nc1OCC [Compound 767, (S)—N-(2-(1-(6-ethoxy-5-d3-methoxypyridin-2-yl)-2-(methylsulfonyl)ethyl)-7-fluoro-1,3-dioxoisoindolin-4-yl)cyclopropanecarboxamide] | 2.2 | 1.3 | 1
CCOc1nc([C@H](CS(C)(=O)=O)N2C(=O)c3cccc(NC(C)=O)c3C2=O)ccc1OC [Compound 703, (R)—N-(2-(1-(6-ethoxy-5-methoxypyridin-2-yl)-2-(methylsulfonyl)ethyl)-1,3-dioxoisoindolin-4-yl)acetamide] | 55 | 30 | 20
CCOc1cc(C(CS(C)(=O)=O)N2C(=O)c3cc(F)cc(NC(C)=O)c3C2=O)ccc1OC (stereo not drawn) [Compound 201, N-(2-(1-(3-ethoxy-4-methoxyphenyl)-2-(methylsulfonyl)ethyl)-6-fluoro-1,3-dioxoisoindolin-4-yl)acetamide] | 41 | 39 | 25
[2H]C([2H])([2H])Oc1ccc([C@@H](CS(C)(=O)=O)N2C(=O)c3c(F)ccc(NC(C)=O)c3C2=O)nc1OCC [Compound 718, (S)—N-(2-(1-(6-ethoxy-5-d3-methoxypyridin-2-yl)-2-(methylsulfonyl)ethyl)-7-fluoro-1,3-dioxoisoindolin-4-yl)acetamide] | 3 | 0.9 | 0.7
